Assay results: US10420844B2, “Peptide pharmaceuticals” (Mederis Diabetes LLC, priority 2011, dated 2019)
“Also recorded” adds a separate entry of the source. Non-standard residues stand in square brackets, D forms with d. Residues, ends and D or L forms follow the SMILES beside them. *: point of attachment. GlcA(β-D,1-O-dodecyl) = CCCCCCCCCCCCO[C@@H]1O[C@H](C(=O)*)[C@@H](O)[C@H](O)[C@H]1O; hArg = N=C(N)NCCCC[C@H](N)C(=O)O; Nle = CCCC[C@H](N)C(=O)O; Ac5c = NC1(C(=O)O)CCCC1; Aib = CC(C)(N)C(=O)O

Tests used:
mu opioid receptor = biological target: T1, mu opioid receptor (Homo sapiens, UniProt P35372); experiment: mu opioid receptor cellular assay (MOP, agonist and antagonist mode), cAMP readout, Cerep; type: cell-based
T1 construct: Cerep SA (contract research organization)
Experimental: (§1) Compounds were weighed precisely in an amount of approximately 2 mg and assayed in standard cellular assays by the contract research organization Cerep, Inc. (Pullman, Wash.) as executed at their subsidiary, Cerep SA (Le Bois l'Eveque, France). The readout is the amount of cAMP generated in the cells treated with the test compounds, in either agonist or antagonist mode. The assays used were the mu opioid receptor cellular assay (MOP in agonist and antagonist mode), the delta2 opioid receptor cellular assay (DOP in agonist and antagonist mode) and the kappa opioid receptor cellular assay (KOP in agonist and antagonist mode). The assays used are described in Wang, J. B., et al. (1994) FEBS Lett 338: 217-222, Law, P. Y. and Loh, H. H. (1993) Mol Pharmacol 43: 684-693, and Avidor-Reiss, T., et al. (1995) FEBS Lett 361: 70-74. The stimulant for the cells in the DOR antagonist assay was 3×10E-8M DPDPE, a well-accepted DOR literature standard.

delta2 opioid receptor = biological target: T2, delta2 opioid receptor (Mus musculus, UniProt P32300); experiment: delta2 opioid receptor cellular assay (DOP, agonist and antagonist mode), cAMP readout, Cerep; type: cell-based; conditions: in competition with 30 nM DPDPE
T2 construct: Cerep SA (contract research organization)
Experimental: as §1

[1] = blood PO4 and Ca levels in rats after a single sc injection; type: in vivo, rat
Source text: Following the method of Frolik, C.

[2] = biological target: T3, PTH1 (PTHR1), SaOS2 cells (Homo sapiens, UniProt Q03431); experiment: PTH1 cellular assay, cAMP generated in SaOS2 cells, Cerep; type: cell-based
T3 construct: host or cells: SaOS2 cells (as named in the result head)
T3 sequence (Q03431 27-593): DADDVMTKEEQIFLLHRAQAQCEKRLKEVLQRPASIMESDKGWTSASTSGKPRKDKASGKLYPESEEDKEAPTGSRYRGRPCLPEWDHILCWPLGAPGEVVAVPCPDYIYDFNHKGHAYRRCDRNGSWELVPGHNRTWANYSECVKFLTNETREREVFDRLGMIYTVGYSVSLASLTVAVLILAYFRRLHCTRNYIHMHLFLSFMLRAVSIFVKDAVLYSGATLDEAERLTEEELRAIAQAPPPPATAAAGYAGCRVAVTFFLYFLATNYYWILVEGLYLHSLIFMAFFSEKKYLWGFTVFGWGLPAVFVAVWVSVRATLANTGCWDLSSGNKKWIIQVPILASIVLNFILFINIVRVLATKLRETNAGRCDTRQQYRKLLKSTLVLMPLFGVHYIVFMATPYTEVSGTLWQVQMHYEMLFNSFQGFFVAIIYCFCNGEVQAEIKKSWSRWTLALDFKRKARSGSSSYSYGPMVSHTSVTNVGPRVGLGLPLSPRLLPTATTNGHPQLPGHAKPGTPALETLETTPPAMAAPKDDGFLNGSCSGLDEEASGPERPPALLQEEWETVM
Experimental: Compounds were weighed precisely in an amount of approximately 1 mg and assayed in standard cellular assays (cerep SA). The readout is the amount of cAMP generated in the cells treated with the test compounds, in either agonist or antagonist mode.
Compounds were dissolved in water and diluted in assay buffer containing 1% bovine serum albumin.

T1 sequence (P35372 whole entry): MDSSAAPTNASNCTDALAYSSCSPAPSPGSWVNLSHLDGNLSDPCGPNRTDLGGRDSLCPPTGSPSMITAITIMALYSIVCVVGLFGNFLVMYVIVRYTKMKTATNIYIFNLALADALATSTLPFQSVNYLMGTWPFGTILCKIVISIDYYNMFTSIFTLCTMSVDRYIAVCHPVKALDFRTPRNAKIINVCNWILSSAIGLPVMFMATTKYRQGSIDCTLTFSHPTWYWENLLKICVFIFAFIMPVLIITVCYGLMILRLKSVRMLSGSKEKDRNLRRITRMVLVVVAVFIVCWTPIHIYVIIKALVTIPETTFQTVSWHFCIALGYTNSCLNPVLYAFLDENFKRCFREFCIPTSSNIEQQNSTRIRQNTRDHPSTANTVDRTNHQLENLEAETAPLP
T2 sequence (P32300 whole entry): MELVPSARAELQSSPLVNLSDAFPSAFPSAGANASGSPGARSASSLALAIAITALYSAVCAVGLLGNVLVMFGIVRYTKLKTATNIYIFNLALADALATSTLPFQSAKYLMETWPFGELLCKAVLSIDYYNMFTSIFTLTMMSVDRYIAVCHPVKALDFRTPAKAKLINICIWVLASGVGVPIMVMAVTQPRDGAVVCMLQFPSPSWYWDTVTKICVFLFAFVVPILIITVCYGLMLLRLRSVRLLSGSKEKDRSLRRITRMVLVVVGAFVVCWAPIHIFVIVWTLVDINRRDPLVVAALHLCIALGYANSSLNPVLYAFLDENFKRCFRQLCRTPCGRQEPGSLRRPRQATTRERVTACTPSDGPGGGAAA

Molecule: 2′,6′-dimethyl-L-tyrosyl-L-1,2,3,4-tetrahydroisoquinoline-3-carbonyl-L-phenylalanyl-Nε-(1′-methyl R-D-glucuronyl)-L-lysyl-amide [EU-A178]
- behavior in the MOP agonist assay (FIG. 11) (mu opioid receptor): potent, full agonistic behavior
- Characterization (mu opioid receptor; MOP agonist mode and DOP antagonist mode): Pure MOP Ag; pure DOP antag
- action on the DOP receptor (FIG. 11) (delta2 opioid receptor): highly potent action as a pure antagonist

Molecule: CCCCCCCCCCCCO[C@@H]1O[C@H](C(=O)NCCCC[C@H](NC(=O)C(C)(C)NC(=O)[C@H](CCC(N)=O)NC(=O)[C@@H](NC(=O)[C@H](Cc2c[nH]c3ccccc23)NC(=O)[C@H](CCCNC(=N)N)NC(=O)[C@H](C)NC(=O)[C@H](CCCCNC(=N)N)NC(=O)[C@H](CCC(N)=O)NC(=O)[C@H](Cc2c[nH]cn2)NC(=O)[C@H](CCCC)NC(=O)[C@H](CC(C)C)NC(=O)[C@H](CCC(N)=O)NC(=O)[C@@H](NC(=O)[C@H](CCC(=O)O)NC(=O)C(C)(C)NC(=O)[C@@H](NC(=O)C2(N)CCCC2)C(C)C)[C@@H](C)CC)[C@@H](C)CC)C(=O)NC(C)(C)C(N)=O)[C@@H](O)[C@H](O)[C@H]1O [EU-232] (H-[Ac5c]V[Aib]EIQL[Nle]HQ[hArg]ARWIQ[Aib]K(GlcA(β-D,1-O-dodecyl))[Aib]-NH2)
- time of maximal statistically significant effect on blood phosphate ([1]; rat serum, sc dosing, last time point of the assay (FIG. 6)): 5 h
- blood calcium levels versus control (saline/vehicle) ([1]; rat, sc, 80 (PTH, EU-232) or 320 (EU-232), all time points): No groups were statistically significantly different from control
- blood calcium at maximally effective dose and time point ([1]; rat, sc, G4 320, at 5 hrs): no elevation
- blood PO4 levels, 80 mcg groups ([1]; rat, single sc injection, 80 mcg, PO4 did not further diminish after 1 hour): transient but not statistically significant decrease
- maximal decrease of blood PO4 from time 0 hr. level ([1]; rat, single sc injection, seen at the 5 hr. time point, statistically significant): 25-35%
- Characterization [2]: agonist
- character of the cellular cAMP response [2]: super-agonistic response; also recorded: super-agonistic activity
